The target in the test is T1, ER protein (Homo sapiens, UniProt P03372).
T1 sequence (P03372 1-595): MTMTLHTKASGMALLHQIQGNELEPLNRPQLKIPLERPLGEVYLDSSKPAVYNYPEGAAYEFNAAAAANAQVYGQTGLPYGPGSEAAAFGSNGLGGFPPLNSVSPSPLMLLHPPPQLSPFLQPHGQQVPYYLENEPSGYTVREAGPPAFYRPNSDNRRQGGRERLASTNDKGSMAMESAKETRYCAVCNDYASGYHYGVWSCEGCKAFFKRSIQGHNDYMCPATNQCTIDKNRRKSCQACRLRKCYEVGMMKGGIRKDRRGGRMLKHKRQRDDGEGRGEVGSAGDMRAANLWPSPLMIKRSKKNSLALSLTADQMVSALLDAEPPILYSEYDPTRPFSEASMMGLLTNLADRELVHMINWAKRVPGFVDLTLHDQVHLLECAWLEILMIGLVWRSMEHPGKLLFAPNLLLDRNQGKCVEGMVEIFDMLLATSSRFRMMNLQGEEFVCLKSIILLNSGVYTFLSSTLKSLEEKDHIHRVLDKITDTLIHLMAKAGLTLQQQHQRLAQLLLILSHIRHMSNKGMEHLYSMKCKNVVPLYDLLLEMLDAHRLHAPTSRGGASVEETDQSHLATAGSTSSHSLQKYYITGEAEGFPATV
In words: Western blotting analysis of ER protein degradation in T47D cell line. The test is classed as cell-based. Also on record: western blotting detection of the level of intracellular ER protein; endogenous in cells; host or cells: T47D. The settings on record: degradation of ER protein, T47D cells, drug treatment for 16 hours, Western blot gray values vs DMSO control; read-out: DC50 (nM)/T47Dcell line. On the procedure:
T47D cells were cultured in an incubator with 5% CO2 at 37° C. Complete medium was RPMI1640 supplemented with 10% Foetal bovine serum (FBS), 100 U/ml Penicillin and Streptomycin, and 0.77 μg/mL recombinant human insulin. Western blotting analysis of T47D cell line: • Cells were plated in a 24-well plate at a cell seeding […] of 1.5×10^5 cells/mL, with 1 ml cell suspensions per well. • After 24 h the cells were adherent, and the cells in each well were treated with 1 μL a certain concentration of ER protein regulators of the present disclosure. […] Afterwards, the membranes were block by using the Blocking Buffer, and the antibody incubation and development were performed. (The above procedures were all based on the antibody product manual of the manufacturer) DC50 value (the drug concentration required for degrading proteins by 50%, abbreviated as DC50) reads method: comparing the gray values of the Western blotting bands for the drug treatment with the gray values of the Western blotting band for the DMSO control, and reading the drug concentration range corresponding to the gray value of the Western blotting bands for the drug treatment which is equal to half of the gray value of the Western blotting band for the DMSO control. DC50 value could also be calculated as follows: using software ImageJ to quantify the gray values of the Western blotting bands for the drug treatment, fitting the relationship curve between drug concentrations and gray values, and from the fitted curve, calculating the drug concentration corresponding to half of the gray value of the Western blotting band for the DMSO control.
(In general: Immunoblotting shows a protein as a band on a membrane.)

On to `Cc1ncsc1-c1ccc(CNC(=O)[C@@H]2C[C@@H](O)CN2C(=O)[C@@H](NC(=O)CCc2ccc(CCC(=O)NCCOc3ccc(C(=C(CCCl)c4ccccc4)c4ccc(O)cc4)cc3)cc2)C(C)(C)C)cc1` [SIAIS208127, (2S,4R)-1-((S)-2-(3-(4-(3-((2-(4-(4-chloro-1-(4-hydroxyphenyl)-2-phenylbut-1-en-1-yl)phenoxy)ethyl)amino)-3-oxopropyl)phenyl)propanamido)-3,3-dimethylbutanoyl)-4-hydroxy-N-(4-(4-methylthiazol-5-yl)benzyl)pyrrolidine-2-carboxamide], for which the DC50 was below 100 nM.
In the case of `O=C(CCCCCCNc1cccc2c1CN(C1CCC(=O)NC1=O)C2=O)NCCOc1ccc(C(=C(CCCl)c2ccccc2)c2ccc(O)cc2)cc1` (centres unmarked) [SIAIS251033, N-(2-(4-(4-chloro-1-(4-hydroxyphenyl)-2-phenylbut-1-en-1-yl)phenoxy)ethyl)-7-((2-(2,6-dioxopiperidin-3-yl)-1-oxoisoindolin-4-yl)amino)heptanamide], the DC50 is 50 nM.
Regarding `Cc1ncsc1-c1ccc(CNC(=O)[C@@H]2C[C@@H](O)CN2C(=O)[C@@H](NC(=O)CCCCCCCCC(=O)N(C)CCOc2ccc(/C(=C(/CCCl)c3ccccc3)c3ccccc3)cc2)C(C)(C)C)cc1` [SIAIS180036, N1-(2-(4-((Z)-4-chloro-1,2-diphenylbut-1-en-1-yl)phenoxy)ethyl)-N10-((S)-1-((2S,4R)-4-hydroxy-2-((4-(4-methylthiazol-5-yl)benzyl)carbamoyl)pyrrolidin-1-yl)-3,3-dimethyl-1-oxobutan-2-yl)-N1-methyldecanediamide], the DC50 was below 200 nM.
Consider `Cc1ncsc1-c1ccc(CNC(=O)[C@@H]2C[C@@H](O)CN2C(=O)[C@@H](NC(=O)CCOCCOCCOCCC(=O)N2CCN(CCOc3ccc(C(=C(CCCl)c4ccccc4)c4ccc(O)cc4)cc3)CC2)C(C)(C)C)cc1` [SIAIS251050, (2S,4R)-1-((S)-2-(tert-butyl)-16-(4-(2-(4-(4-chloro-1-(4-hydroxyphenyl)-2-phenylbut-1-en-1-yl)phenoxy)ethyl)piperazin-1-yl)-4,16-dioxo-7,10,13-trioxa-3-azahexadecanoyl)-4-hydroxy-N-(4-(4-methylthiazol-5-yl)benzyl)pyrrolidine-2-carboxamide], for which the DC50 was below 50 nM.
As for `Cc1ncsc1-c1ccc(CNC(=O)[C@@H]2C[C@@H](O)CN2C(=O)[C@@H](NC(=O)CCN2CCN(CCC(=O)NCCOc3ccc(C(=C(CCCl)c4ccccc4)c4ccc(O)cc4)cc3)CC2)C(C)(C)C)cc1` [SIAIS208107, (2S,4R)-1-((S)-2-(3-(4-(3-((2-(4-(4-chloro-1-(4-hydroxyphenyl)-2-phenylbut-1-en-1-yl)phenoxy)ethyl)amino)-3-oxopropyl)piperazin-1-yl)propanamido)-3,3-dimethylbutanoyl)-4-hydroxy-N-(4-(4-methylthiazol-5-yl)benzyl)pyrrolidine-2-carboxamide], the DC50 is below 200 nM.
Take `O=C(CCCCCCNc1cccc2c1C(=O)N(C1CCC(=O)NC1=O)C2=O)NCCOc1ccc(C(=C(CCCl)c2ccccc2)c2ccc(O)cc2)cc1` (centres unmarked) [SIAIS208145, N-(2-(4-(4-chloro-1-(4-hydroxyphenyl)-2-phenylbut-1-en-1-yl)phenoxy)ethyl)-7-((2-(2,6-dioxopiperidin-3-yl)-1,3-dioxoisoindolin-4-yl)amino)heptanamide]: the DC50 was below 100 nM.
The same measure for `Cc1ncsc1-c1ccc(CNC(=O)[C@@H]2C[C@@H](O)CN2C(=O)[C@@H](NC(=O)CCCCCCCCC(=O)N2CCN(CCOc3ccc(C(=C(CCCl)c4ccccc4)c4ccc(O)cc4)cc3)CC2)C(C)(C)C)cc1` [SIAIS251047, (2S,4R)-1-((S)-2-(10-(4-(2-(4-(4-chloro-1-(4-hydroxyphenyl)-2-phenylbut-1-en-1-yl)phenoxy)ethyl)piperazin-1-yl)-10-oxodecanamido)-3,3-dimethylbutanoyl)-4-hydroxy-N-(4-(4-methylthiazol-5-yl)benzyl)pyrrolidine-2-carboxamide]: below 50 nM.
The result for `CCC(=C(c1ccc(O)cc1)c1ccc(OCCNC(=O)CCCCCCCC(=O)N[C@H](C(=O)N2C[C@H](O)C[C@H]2C(=O)NCc2ccc(-c3scnc3C)cc2)C(C)(C)C)cc1)c1ccc(O)cc1` [SIAIS208167, N1-(2-(4-(1,2-bis(4-hydroxyphenyl)but-1-en-1-yl)phenoxy)ethyl)-N9-((S)-1-((2S,4R)-4-hydroxy-2-((4-(4-methylthiazol-5-yl)benzyl)carbamoyl)pyrrolidin-1-yl)-3,3-dimethyl-1-oxobutan-2-yl)nonanediamide] reads below 50 nM; that for `Cc1ncsc1-c1ccc(CNC(=O)[C@@H]2C[C@@H](O)CN2C(=O)[C@@H](NC(=O)CCOCCOCCOCCOCCOCCC(=O)N(C)CCOc2ccc(/C(=C(/CCCl)c3ccccc3)c3ccccc3)cc2)C(C)(C)C)cc1` [SIAIS180022, N1-(2-(4-((Z)-4-chloro-1,2-diphenylbut-1-en-1-yl)phenoxy)ethyl)-N19-((S)-1-((2S,4R)-4-hydroxy-2-((4-(4-methylthiazol-5-yl)benzyl)carbamoyl)pyrrolidin-1-yl)-3,3-dimethyl-1-oxobutan-2-yl)-N1-methyl-4,7,10,13,16-pentaoxanonadecanediamide], below 50 nM.
`Cc1ncsc1-c1ccc(CNC(=O)[C@@H]2C[C@@H](O)CN2C(=O)[C@@H](NC(=O)CCCC(=O)N2CCN(CCOc3ccc(C(=C(CCCl)c4ccccc4)c4ccc(O)cc4)cc3)CC2)C(C)(C)C)cc1` [SIAIS251042, (2S,4R)-1-((S)-2-(5-(4-(2-(4-(4-chloro-1-(4-hydroxyphenyl)-2-phenylbut-1-en-1-yl)phenoxy)ethyl)piperazin-1-yl)-5-oxopentanamido)-3,3-dimethylbutanoyl)-4-hydroxy-N-(4-(4-methylthiazol-5-yl)benzyl)pyrrolidine-2-carboxamide]: the DC50 was below 50 nM.
In the case of `Cc1ncsc1-c1ccc(CNC(=O)[C@@H]2C[C@@H](O)CN2C(=O)[C@@H](NC(=O)CCOCCOCCC(=O)N(C)CCOc2ccc(/C(=C(/CCCl)c3ccccc3)c3ccccc3)cc2)C(C)(C)C)cc1` [SIAIS180023, (2S,4R)-1-((S)-2-(tert-butyl)-16-(4-((Z)-4-chloro-1,2-diphenylbut-1-en-1-yl)phenoxy)-14-methyl-4,13-dioxo-7,10-dioxa-3,14-diazahexadecanoyl)-4-hydroxy-N-(4-(4-methylthiazol-5-yl)benzyl)pyrrolidine-2-carboxamide], the DC50 was below 50 nM.
For the compound `CCC(=C(c1ccc(O)cc1)c1ccc(OCCNC(=O)CCN2CCN(CCNc3cccc4c3C(=O)N(C3CCC(=O)NC3=O)C4=O)CC2)cc1)c1ccc(O)cc1` (centres unmarked) [SIAIS208172, N-(2-(4-(1,2-bis(4-hydroxyphenyl)but-1-en-1-yl)phenoxy)ethyl)-3-(4-(2-((2-(2,6-dioxopiperidin-3-yl)-1,3-dioxoisoindolin-4-yl)amino)ethyl)piperazin-1-yl)propanamide], the DC50 is below 50 nM.
For `CCC(=C(c1ccc(O)cc1)c1ccc(OCCNC(=O)CCCCCCCCCC(=O)N[C@H](C(=O)N2C[C@H](O)C[C@H]2C(=O)NCc2ccc(-c3scnc3C)cc2)C(C)(C)C)cc1)c1ccc(O)cc1` [SIAIS208169, N1-(2-(4-(1,2-bis(4-hydroxyphenyl)but-1-en-1-yl)phenoxy)ethyl)-N11-((S)-1-((2S,4R)-4-hydroxy-2-((4-(4-methylthiazol-5-yl)benzyl)carbamoyl)pyrrolidin-1-yl)-3,3-dimethyl-1-oxobutan-2-yl)undecanediamide], the DC50 is below 50 nM.
For the compound `Cc1ncsc1-c1ccc(CNC(=O)[C@@H]2C[C@@H](O)CN2C(=O)[C@@H](NC(=O)CCc2ccc(CCC(=O)N(C)CCOc3ccc(/C(=C(/CCCl)c4ccccc4)c4ccccc4)cc3)cc2)C(C)(C)C)cc1` [SIAIS208125, (2S,4R)-1-((S)-2-(3-(4-(3-((2-(4-((Z)-4-chloro-1,2-diphenylbut-1-en-1-yl)phenoxy)ethyl)(methyl)amino)-3-oxopropyl)phenyl)propanamido)-3,3-dimethylbutanoyl)-4-hydroxy-N-(4-(4-methylthiazol-5-yl)benzyl)pyrrolidine-2-carboxamide], the DC50 is below 200 nM.

The values above are taken from US20220016102A1, “ER PROTEIN REGULATORS AND USE THEREOF” (ShanghaiTech University, priority 2018, published 2022).
